Assay [1] addresses T1, IKKε (Homo sapiens, UniProt Q14164).
T1 construct: His-tag (in-house Sf9 preparation) or GST-tag (purchased Invitrogen preparation); these are alternatives, not both on one protein; host or cells: Sf9 cells
T1 sequence (Q14164 1-716): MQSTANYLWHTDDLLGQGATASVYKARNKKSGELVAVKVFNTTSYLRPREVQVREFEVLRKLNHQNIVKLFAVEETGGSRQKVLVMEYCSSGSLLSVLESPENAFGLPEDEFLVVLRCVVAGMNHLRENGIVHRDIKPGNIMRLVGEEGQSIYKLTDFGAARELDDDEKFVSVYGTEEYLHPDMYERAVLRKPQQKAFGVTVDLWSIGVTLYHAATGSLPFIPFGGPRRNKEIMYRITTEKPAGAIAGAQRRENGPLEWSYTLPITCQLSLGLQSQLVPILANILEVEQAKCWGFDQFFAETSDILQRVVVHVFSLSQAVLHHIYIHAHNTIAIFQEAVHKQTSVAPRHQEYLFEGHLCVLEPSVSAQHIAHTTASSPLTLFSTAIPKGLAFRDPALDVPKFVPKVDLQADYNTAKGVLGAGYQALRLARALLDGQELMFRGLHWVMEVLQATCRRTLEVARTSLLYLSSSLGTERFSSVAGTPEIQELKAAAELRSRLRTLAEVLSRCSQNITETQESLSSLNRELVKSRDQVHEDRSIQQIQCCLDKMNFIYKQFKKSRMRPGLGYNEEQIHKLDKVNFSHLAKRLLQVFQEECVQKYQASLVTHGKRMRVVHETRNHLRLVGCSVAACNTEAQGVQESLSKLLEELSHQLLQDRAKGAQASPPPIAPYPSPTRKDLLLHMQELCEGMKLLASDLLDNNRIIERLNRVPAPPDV
As to the kind of experiment: In-vitro IKKε kinase assay (radiolabelled ATP, filterplate). It counts as biochemical. To be noted: "sensitized" assay; read-out: IC50, inhibition of the kinase activity of IKKε. The procedure, abridged:
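His-tagged IKKε from Sf9 cells or GST-tagged IKKε, with myelin basic protein, casein or dephosphorylated casein as substrate and 32 μM ATP (2× Km) plus [γ^33]ATP. "Normal" assay used 0.1 μg/ml enzyme; "sensitized" used 0.015 μg/ml with dephosphorylated casein only. Stopped after 30–45 min with phosphoric acid; P-81 filter counts normalized to DMSO after background subtraction.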

In assay [2] the test system is IKKε-mediated phosphorylation of IRF3. As to the kind of experiment: ELISA for in-situ phosphorylation of IRF3 (phospho-Ser396) in HEK293T cells cotransfected with IRF3 and IKKε. It counts as cell-based. To be noted: Homo sapiens, HEK-293T, 20 h, HEK293T cells, 20 hours, read-out: IC50, in-situ IKKε-mediated phosphorylation of IRF3. Put shortly:
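HEK293T cells cotransfected with IRF3 and IKKε were treated with compound for 20 h, and lysates were assayed by ELISA for phospho-Ser396 IRF3, normalized to DMSO. Viability was checked in parallel by CellTiter-Glo. For TBK1, cells cotransfected with IRF7 and TBK1 were treated overnight and probed by Western blot for phospho-Ser477/Ser479 IRF7.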
In general terms: An ELISA detects its analyte on a solid surface through an enzyme-linked reagent.

The mark [3] stands for this setting: range given from about 1 μM to about 250 nM.

Like-named read-outs stand apart in the source and are kept apart here.

The values that follow come from patent US20140288044A1, “COMPOSITIONS AND THERAPEUTIC USES OF IKK-RELATED KINASE EPSILON AND TANKBINDING KINASE 1 INHIBITORS” (Alzheimer's Institute of America, Inc., priority 2011, published 2014).

As usually defined, the IC50 is the concentration that gives 50% inhibition.

As to `N#Cc1cc(-c2ccnc(Nc3cncc(C(=O)NCCO)c3)n2)ccc1OC1CCOCC1` [Example Compound 175, 5-({4-[3-Cyano-4-(tetrahydro-2H-pyran-4-yloxy)phenyl]pyrimidin-2-yl}amino)-N-(2-hydroxyethyl)pyridine-3-carboxamide], the IC50 in assay [1] is less than 5 nM; in assay [2], 1000 to 5000 nM.

Regarding `COCCNCc1cncc(Nc2nccc(-c3ccc(OC4CCOCC4)c(C#N)c3)n2)c1` [Example Compound 184, 5-{2-[(5-{[(2-Methoxyethyl)amino]methyl}pyridin-3-yl)amino]pyrimidin-4-yl}-2-(tetrahydro-2H-pyran-4-yloxy)benzonitrile], the figures for the IC50 in assay [1] and in assay [2] were less than 5 nM and 100 to 250 nM, respectively.

Consider `N#Cc1cc(-c2ccnc(Nc3cncc(CN4CCOCC4)c3)n2)ccc1OC1CCOCC1` [Example Compound 185, 5-(2-{[5-(Morpholin-4-ylmethyl)pyridin-3-yl]amino}pyrimidin-4-yl)-2-(tetrahydro-2H-pyran-4-yloxy)benzonitrile], for which the 50% inhibitory concentration (IC50) in assay [1] was less than 5 nM; in assay [2] (setting [3]), 250 to 1000 nM.

Take `COCCNc1cc(Nc2nccc(-c3ccc(OC4CCOCC4)c(C#N)c3)n2)ccn1` [Example Compound 193, 5-[2-({2-[(2-Methoxyethyl)amino]pyridin-4-yl}amino)pyrimidin-4-yl]-2-(tetrahydro-2H-pyran-4-yloxy)benzonitrile]: the half-inhibitory concentration (IC50) was less than 5 nM in assay [1] and less than 100 nM in assay [2].

Consider `CN(Cc1ccc(Nc2nccc(-c3ccc(OC4CCOCC4)c(C#N)c3)n2)cn1)C(=O)C(C)(C)O` [Example Compound 205, N-{[5-({4-[3-Cyano-4-(tetrahydro-2H-pyran-4-yloxy)phenyl]pyrimidin-2-yl}amino)pyridin-2-yl]methyl}-2-hydroxy-N,2-dimethylpropanamide], for which the IC50 in assay [1] is less than 5 nM; in assay [2], less than 100 nM.

Take `CN(Cc1ccc(Nc2nccc(-c3ccc(OC4CCOCC4)c(C#N)c3)n2)cn1)S(C)(=O)=O` [Example Compound 206, N-{[5-({4-[3-Cyano-4-(tetrahydro-2H-pyran-4-yloxy)phenyl]pyrimidin-2-yl}amino)pyridin-2-yl]methyl}-N-methylmethanesulfonamide]: the IC50 is less than 5 nM in assay [1] and less than 100 nM in assay [2].

Turning to `CN(CCS(C)(=O)=O)Cc1ccc(Nc2nccc(-c3ccc(OC4CCOCC4)c(C#N)c3)n2)cn1` [Example Compound 207, 5-(2-{[6-({Methyl[2-(methylsulfonyl)ethyl]amino}methyl)pyridin-3-yl]amino}pyrimidin-4-yl)-2-(tetrahydro-2H-pyran-4-yloxy)benzonitrile], the IC50 in assay [1] was less than 5 nM; in assay [2] (setting [3]) it was 250 to 1000 nM.

In the case of `CC(=O)c1ccc(Nc2nccc(-c3ccc(OC4CCOCC4)c(C#N)c3)n2)cn1` [Example Compound 212, 5-{2-[(6-Acetylpyridin-3-yl)amino]pyrimidin-4-yl}-2-(tetrahydro-2H-pyran-4-yloxy)benzonitrile], the figures for the IC50 in assay [1] and in assay [2] were less than 5 nM and less than 100 nM, respectively.

For `N#Cc1cc(-c2ccnc(Nc3ccc(N4CC(O)C4)nc3)n2)ccc1OC1CCOCC1` [Example Compound 215, 5-(2-{[6-(3-Hydroxyazetidin-1-yl)pyridin-3-yl]amino}pyrimidin-4-yl)-2-(tetrahydro-2H-pyran-4-yloxy)benzonitrile], the IC50 in assay [1] is less than 5 nM; in assay [2], less than 100 nM.

On to `COC1CN(Cc2cc(Nc3nccc(-c4ccc(OC5CCOCC5)c(C#N)c4)n3)ccn2)C1` [Example Compound 219, 5-[2-({2-[(3-Methoxyazetidin-1-yl)methyl]pyridin-4-yl}amino)pyrimidin-4-yl]-2-(tetrahydro-2H-pyran-4-yloxy)benzonitrile], for which the values for the IC50 in assay [1] and in assay [2] were less than 5 nM and 1000 to 5000 nM, respectively.

`COc1cc(Nc2nccc(-c3ccc(O[C@@H]4CCN(C(=O)CO)C4)c(C#N)c3)n2)ccn1` [Example Compound 225, 2-{[(3R)-1-(Hydroxyacetyl)pyrrolidin-3-yl]oxy}-5-{2-[(2-methoxypyridin-4-yl)amino]pyrimidin-4-yl}benzonitrile]: the IC50 in assay [1] was less than 5 nM; in assay [2], 1000 to 5000 nM.

With `N#Cc1cc(-c2ccnc(Nc3ccnc(CO)c3)n2)ccc1OC1CCOCC1` [Example Compound 227, 5-(2-{[2-(Hydroxymethyl)pyridin-4-yl]amino}pyrimidin-4-yl)-2-(tetrahydro-2H-pyran-4-yloxy)benzonitrile], the IC50 in assay [1] is less than 5 nM; in assay [2], less than 100 nM.

In the case of `CC(=O)NCc1ccc(Nc2nccc(-c3ccc(OC4CCOCC4)c(C#N)c3)n2)cn1` [Example Compound 228, N-{[5-({4-[3-Cyano-4-(tetrahydro-2H-pyran-4-yloxy)phenyl]pyrimidin-2-yl}amino)pyridin-2-yl]methyl}acetamide], the IC50 in assay [1] is less than 5 nM; in assay [2] (setting [3]), 250 to 1000 nM.

For the compound `N#Cc1cc(-c2ccnc(Nc3ccc(CNC(=O)N4CCOCC4)nc3)n2)ccc1OC1CCOCC1` [Example Compound 229, N-{[5-({4-[3-Cyano-4-(tetrahydro-2H-pyran-4-yloxy)phenyl]pyrimidin-2-yl}amino)pyridin-2-yl]methyl}morpholine-4-carboxamide], the IC50 in assay [1] was less than 5 nM; in assay [2] it was 100 to 250 nM.

Turning to `COC(=O)c1cc(Nc2nccc(-c3ccc(OC4CCOCC4)c(C#N)c3)n2)ccn1` [Example Compound 230, Methyl 4-({4-[3-cyano-4-(tetrahydro-2H-pyran-4-yloxy)phenyl]pyrimidin-2-yl}amino)pyridine-2-carboxylate], the IC50 was less than 5 nM in assay [1] and 100 to 250 nM in assay [2].

Take `CC(O)c1ccc(Nc2nccc(-c3ccc(OC4CCOCC4)c(C#N)c3)n2)cn1` (centres unmarked) [Example Compound 231, 5-(2-{[6-(1-Hydroxyethyl)pyridin-3-yl]amino}pyrimidin-4-yl)-2-(tetrahydro-2H-pyran-4-yloxy)benzonitrile]: the IC50 in assay [1] is less than 5 nM; in assay [2], 100 to 250 nM.

Regarding `N#Cc1cc(-c2ccnc(Nc3ccc(C(=O)N4CCCC4)nc3)n2)ccc1OC1CCN(C(=O)CO)CC1` [Example Compound 232, 2-{[1-(Hydroxyacetyl)piperidin-4-yl]oxy}-5-(2-{[6-(pyrrolidin-1-ylcarbonyl)pyridin-3-yl]amino}pyrimidin-4-yl)benzonitrile], the IC50 in assay [1] was less than 5 nM; in assay [2] it was 100 to 250 nM.

`N#Cc1cc(-c2ccnc(Nc3ccnc(N4CC(O)C4)c3)n2)ccc1NC(=O)C1CC1` [Example Compound 237, N-[2-Cyano-4-(2-{[2-(3-hydroxyazetidin-1-yl)pyridin-4-yl]amino}pyrimidin-4-yl)phenyl]cyclopropanecarboxamide]: the half-maximal inhibitory concentration (IC50) in assay [1] is less than 5 nM; in assay [2] it was 1000 to 5000 nM.

Take `COCCNc1cc(Nc2nccc(-c3ccc(OC4CCN(C(=O)CO)CC4)c(C#N)c3)n2)ccn1` [Example Compound 238, 2-{[1-(Hydroxyacetyl)piperidin-4-yl]oxy}-5-[2-({2-[(2-methoxyethyl)amino]pyridin-4-yl}amino)pyrimidin-4-yl]benzonitrile]: the IC50 is less than 5 nM in assay [1] and 250 to 1000 nM in assay [2] (setting [3]).

In the case of `N#Cc1cc(-c2ccnc(Nc3ccnc(NCCO)c3)n2)ccc1OC1CCN(C(=O)CO)CC1` [Example Compound 239, 2-{[1-(Hydroxyacetyl)piperidin-4-yl]oxy}-5-[2-({2-[(2-hydroxyethyl)amino]pyridin-4-yl}amino)pyrimidin-4-yl]benzonitrile], the IC50 is less than 5 nM in assay [1] and 1000 to 5000 nM in assay [2].

As to `N#Cc1cc(-c2ccnc(Nc3ccnc(N4CC(O)C4)c3)n2)ccc1OC1CCN(C(=O)CO)CC1` [Example Compound 240, 2-{[1-(Hydroxyacetyl)piperidin-4-yl]oxy}-5-(2-{[2-(3-hydroxyazetidin-1-yl)pyridin-4-yl]amino}pyrimidin-4-yl)benzonitrile], the results for the IC50 in assay [1] and in assay [2] were less than 5 nM and 1000 to 5000 nM, respectively.

For `CC(c1ccc(Nc2nccc(-c3ccc(OC4CCOCC4)c(C#N)c3)n2)cn1)N1CC(N(C)C)C1` (centres unmarked) [Example Compound 244, 5-{2-[(6-{1-[3-(Dimethylamino)azetidin-1-yl]ethyl}pyridin-3-yl)amino]pyrimidin-4-yl}-2-(tetrahydro-2H-pyran-4-yloxy)benzonitrile], the IC50 in assay [1] is less than 5 nM; in assay [2], less than 100 nM.
